Laboratory results published in paper PMC9820303, “^αN-Acetyl β-Endorphin Is an Endogenous Ligand of σ1Rs That Regulates Mu-Opioid Receptor Signaling by Exchanging G Proteins for σ2Rs in σ1R Oligomers” (International Journal of Molecular Sciences, 2022).
Where a name gives a salt, the structure may show the parent alone. No end group written: not given here.

Tests used:
[1] = system: CD1 mice (wild-type and σ1R−/−); assay: Supraspinal analgesia, warm water (52 °C) tail-flick test; type: in vivo, mouse; settings: for analgesia of the substance in σ1R−/− mice compared with wild-type: icv: morphine 3 nmol, β-End 1–31 0.5 nmol, DAMGO 0.1 nmol, DPDPE 10 nmol, WIN55,212-2 15 nmol, 8 mice per strain
Protocol: Upper panel: the withdrawal thresholds of the contralateral and ipsilateral paws were measured before (indicated as 0) and up to 14 days after surgery. […] Middle panel: 0.3 and 3 nmol of ^αN-acetyl β-End 1–31 were administered icv 7 days after surgery, and the nociceptive threshold was evaluated at the indicated postinjection intervals (in minutes). For every time interval studied in min or days, * indicates a significant difference from the group that received saline instead of ^αN-acetyl β-End 1–31; ϕ significant difference from the effect of 3 nmol ^αN-acetyl β-End 1–31. […] All data are presented as the mean ± SD of six mice. ANOVA followed by the Holm–Sidak multiple comparisons test, p < 0.05, 1-β > 0.80. […] Upper panel: wild-type mice were injected icv with saline, ^αN-acetyl β-End 1–31 (1 nmol/mouse) or the combination of the σ1R agonist PPCC (3 nmol/mouse) plus ^αN-acetyl β-End 1–31 20 min before morphine and β-End 1–31. Analgesia was evaluated by the warm water (52 °C) tail-flick test at the interval postinjection corresponding to their peak effect, 30 min. Lower panel: σ1R^−/− mice received 1 nmol ^αN-acetyl β-End 1–31, 20 min before morphine and β-End 1–31 and analgesia was evaluated as described above. Eight mice were used per strain and treatment. * Significant difference with respect to the group treated with morphine or β-End 1–31 alone. ANOVA followed by the Holm–Sidak multiple comparisons test, p < 0.05, 1-β > 0.80.
Figure 3 Effect of physiological β-End 1–31 derivatives on morphine and β-End 1–31 analgesia. […] (A) The mice were icv-injected with 25 nmol of β-End 1–26, β-End 1–27 and ^αN-acetylated derivatives 20 min before icv 0.5 nmol β-End 1–31. Analgesia was determined at the indicated postinjection intervals. (B) CD1 wild-type and σ1R^−/− mice were administered C terminal peptide sequences 27–31, 28–31 and 30–31 of β-End 1–31 through an icv injection 20 min before 0.5 nmol of the whole β-End 1–31 and morphine (10 nmols) were injected icv. […] (C) A series of exogenous σ1R ligands (3 nmol) were icv-injected 20 min before 0.5 nmol β-End 1–31 was administered via icv in wild-type mice. The σ1R antagonist S1RA was also icv-injected before β-End 1–31 was administered icv in σ1R^−/− mice. (D) The effects of several doses of S1RA on morphine analgesia were studied in wild-type and σ1R^−/− mice. […] ANOVA followed by the Holm–Sidak multiple comparisons test, p < 0.05, 1-β > 0.80.
(A) The effect of σ1R deletion on opioid- and cannabinoid-induced analgesia. Analgesic compounds were icv-injected into wild-type and σ1R^−/− mice, and analgesia was evaluated 30 min after morphine (3 nmol) and β-End 1–31 (0.5 nmol), 15 min after DAMGO (0.1 nmol) and DPDPE (10 nmol) and 10 min after WIN55,212-2 (15 nmol). The bars are the mean ± SD of eight mice per strain and treatment. * Significant difference with respect to the effect of the analgesic substance in the wild-type group. ANOVA followed by the Holm–Sidak multiple comparisons test, p < 0.05, 1-β > 0.80. (B) Coprecipitation of G proteins with MORs. Solubilized mouse brain cortical membranes enriched in synaptosomes (SBM) from CD1 wild-type (WT) and σ1R^−/− mice were solubilized with sonication in the presence of 1% NP-40. Non-soluble debris was eliminated, and the samples were then incubated overnight at 4 °C with affinity-purified biotinylated IgGs that were raised against extracellular regions of the MOR. Protein complexes that were immunoprecipitated with streptavidin agarose were extensively washed and then resolved by SDS-PAGE.

σ1R-σ2R = σ1R-σ2R (Mus musculus, UniProt O55242); assay: In vitro σ1R-σ2R association of recombinant proteins (HaloLink-σ2R, Western blot); type: biochemical, murine; parameters: The coding region of the full-length murine σ1R (AF004927); GST (N, cleaved yes); made in house; host or cells: E. coli BL21 (KRX); settings: increasing concentrations; 30 min RT; vs control without ligand
Chain of σ1R-σ2R (O55242 whole entry): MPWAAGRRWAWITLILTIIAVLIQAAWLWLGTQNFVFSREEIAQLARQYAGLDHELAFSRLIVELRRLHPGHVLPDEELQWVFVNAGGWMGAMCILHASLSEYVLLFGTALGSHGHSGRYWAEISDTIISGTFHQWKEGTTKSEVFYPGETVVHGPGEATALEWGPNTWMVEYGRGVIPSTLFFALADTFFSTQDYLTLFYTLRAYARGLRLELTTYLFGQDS
Protocol: (§1) Figure 7 Effect of β-End 1–31, ^αN-acetyl β-End 1–31 and their N-terminal derivatives on σ1R-σ2R, σ1R-NR1 C1 and σ1R-BiP associations. Amino acid sequence of β-End 1–31 showing derivatives 1–26 and 1–27. (A) HaloLink-attached σ2Rs were incubated for 30 min at RT in the presence of σ1Rs (100 nM) in 300 μL of 50 mM Tris-HCl (pH 7.4), 0.2% CHAPS, and 2.5 mM CaCl2. After removing the unbound σ1R proteins, the effects of increasing the peptide concentrations on σ1R-σ2R associations were studied. At the end of the incubation, protein complexes bound to HaloLink-σ2R were obtained by centrifugation, washed three times, solubilized in 2× Laemmli buffer containing β-mercaptoethanol, resolved by SDS-PAGE, and analyzed by Western blotting (for more details, see Section 4). This protocol was also used to assess the effect of ligands on (B) σ1R-NR1 C1 and (C) σ1R-BiP associations. Data were compared to that of the control, which was obtained in the absence of ligands. (A–C) Data are the mean ± SD, n = 3. (D) The β-End 1–31 structural models were predicted by Novafold (DNASTAR Lasergene protein v.17, Inc., Madison, WI, USA). Ribbon model: The 3D structure, charge distribution and hydrophobicity map of β-End 1–31 are shown. Positive charges are shown in red and negative charges in blue. Polar surfaces are shown in yellow, and nonpolar surfaces are shown in orange. Linear model: the opioid (1–5) and flexible region (8–11) sequences are shown in green and orange, respectively, and the amphiphilic helix (15–25) is shown in pink.
(§2) The recombinant σ1R (100 nM) was incubated either with Haloprotein (negative control) or together with the immobilized σ2R, NR1 C0-C1-C2 or BiP proteins in 300 µL of a buffer containing 50 mM Tris-HCl (pH 7.4) and 0.2% CHAPS in the presence of 2.5 mM CaCl2 for 30 min at RT. After removal of the unbound σ1R, the agarose-attached complexes were incubated for 30 min with rotation at RT in the presence of increasing concentrations of the ligands in a final reaction volume of 300 µL [50 mM Tris-HCl (pH 7.4), 2.5 mM CaCl2 and 0.2% CHAPS]. Ligands were usually dissolved in aqueous solutions; however, when an organic solvent such as DMSO was required to incorporate, e.g., pregnenolone sulfate, the solvent remained below 1% in the assay buffer. Agarose pellets containing the bound proteins were obtained by centrifugation, washed and resuspended thrice in the presence of 2.5 mM CaCl2, solubilized in 2× Laemmli buffer plus β-mercaptoethanol, and analyzed by Western blotting.
(§3) Because all the assays were performed with recombinant proteins, the immune signals provided a single band of the expected size, which was used for the subsequent densitometry analysis. Accordingly, no other regions of the blots provided information and were routinely excluded from the analysis.
Figure S7. Effect of σ1R agonist/antagonist ligands on σ1R-σ2R heterodimers. (A-C) Agarose (Θ)- attached σ2Rs captured recombinant σ1Rs. After removing unbound σ1R proteins, the Θ-σ2R.σ1R complexes were incubated with a ﬁxed concentration of a selected L1 ligand (indicated in brackets) in the absence and presence of increasing concentrations of competing σ1R ligands as indicated. The σ1Rs that remained attached to the Θ-σ2Rs were evaluated by Western blotting. * Signiﬁcant differences with respect to the control group that was incubated without L1 ligands. ANOVA followed by the Holm-Sidak multiple comparisons test, p < 0.05. For details, see Methods and Figure 6A. Representative blots are […]
Figure S8. Effect of the physiological and nonphysiological sequences of β-End 1-31 and classical σ1R ligands on BiP-σ1R, σ2R-σ1R and NR1 C1-σ1R associations . Agarose-BiP was loaded with σ1Rs, and after the unbound σ1Rs were removed, the agarose-BiP-σ1R complexes were incubated in the absence (control) and presence of increasing concentrations of (A) β-End 1-31 C-terminal physiological derivatives and (B) classical σ1R ligands. C) Agarose-σ2R loaded with σ1Rs was incubated in the […]

σ1R-NR1 C1 = target: T1, σ1R-NR1 C1 (Mus musculus, UniProt O55242); assay: In vitro σ1R-NR1 C1 association of recombinant proteins (Western blot); type: biochemical, murine; settings: increasing concentrations; 30 min RT; vs control without ligand
T1 construct: The coding region of the full-length murine σ1R (AF004927); GST (N, cleaved yes); made in house; host or cells: E. coli BL21 (KRX)
T1 sequence (O55242 whole entry): as above
Protocol: as §1, §2, §3
Figure S8. Effect of the physiological and nonphysiological sequences of β-End 1-31 and classical σ1R ligands on BiP-σ1R, σ2R-σ1R and NR1 C1-σ1R associations . […]
D) Agarose-NR1 C1 loaded with […]
σ1Rs were incubated in the absence (control) and with nonphysiological derivatives of β-End 1-31. A-D) The σ1Rs that remained attached to the agarose complexes were evaluated by Western blotting. The […]
(§4) (1 picture or pasted object on this page, not shown here)
Figure S9. Effect of σ1R agonist/antagonist ligands on σ1R-NR1 C1 associations. Θ-Agarose-NR1 C1 was loaded with recombinant σ1Rs. After unbound σ1R proteins were removed, the complexes were incubated with (A) 1 nM β-End 1-31, (B) αN-acetyl β-End 1-31, (C-D) β-End 28-31 in the absence (black columns) and presence of (A) 10 nM or (B-D) increasing concentrations of competing σ1R ligands as indicated. The σ1Rs that remained attached to the Θ-σ2Rs were evaluated by Western blotting. The […]
Prog is progesterone; PregSulfate is pregnenolone sulfate; Nac is […]

σ1R-BiP = target: T2, σ1R-BiP (Mus musculus, UniProt O55242); assay: In vitro σ1R-BiP association of recombinant proteins (Western blot); type: biochemical
T2 construct: The coding region of the full-length murine σ1R (AF004927); GST (N, cleaved yes); host or cells: E. coli BL21 (KRX) for σ1R
T2 sequence (O55242 whole entry): as above
Protocol: as §1, §2, §3
Figure S8. Effect of the physiological and nonphysiological sequences of β-End 1-31 and classical σ1R ligands on BiP-σ1R, σ2R-σ1R and NR1 C1-σ1R associations . Agarose-BiP was loaded with σ1Rs, and after the unbound σ1Rs were removed, the agarose-BiP-σ1R complexes were incubated in the absence (control) and presence of increasing concentrations of (A) β-End 1-31 C-terminal physiological derivatives and (B) classical σ1R ligands. C) Agarose-σ2R loaded with σ1Rs was incubated in the absence (control) and with nonphysiological derivatives of β-End 1-31. D) Agarose-NR1 C1 loaded with σ1Rs were incubated in the absence (control) and with nonphysiological derivatives of β-End 1-31. A-D) The σ1Rs that remained attached to the agarose complexes were evaluated by Western blotting. The […]
as §4
Figure S10. Effect of σ1R agonist/antagonist ligands on σ1R-BiP associations. Agarose-attached BiP proteins were incubated for 30 min in the presence of recombinant σ1R (100 nM) proteins in 300 μL of 50 mM Tris-HCl (pH 7.4), 0.2% CHAPS, and 2.5 mM CaCl2. After the unbound σ1R proteins were […]

| Molecule | analgesia of the substance in σ1R−/− mice compared with wild-type [1] | effect on σ1R-σ2R association (σ1R-σ2R) | effect on σ1R-NR1 C1 association (σ1R-NR1 C1) | further results |
| --- | --- | --- | --- | --- |
| CN1CC[C@]23c4c5ccc(O)c4O[C@H]2[C@@H](O)C=C[C@H]3[C@H]1C5 [morphine, morphine sulfate] | increased analgesic response |  |  |  |
| ([D-Pen2,D-Pen5]enkephalin) [DPDPE] | did not significantly change |  |  |  |
| GGFM [met-enkephalin 2–5 aminopeptidase product] |  | promoted the sigma receptor heterodimer |  |  |
| β-End 1–4: fragment 1–4 of β-End 1–31 (YGGF; Beta-endorphin; UniProt P01189 237-240, looked up, fragment) |  |  | enhancement |  |
| ([D-Ala2, N-MePhe4, Gly-ol]-enkephalin [DAMGO] | augmented |  |  |  |
| ^αN-acetyl β-End 1–27: ^αN-acetylated form of β-End 1–27 (Ac-YGGFMTSEKSQTPLVTLFKNAIIKNAY; UniProt P01189 237-263, looked up, fragment) |  |  |  | activity at σ1R-BiP against agonists / β-End 1–31 (σ1R-BiP; 1 nM β-End 1–31 with increasing competitor (Figure S10)): antagonist activity; effect on σ1R-BiP association (σ1R-BiP; increasing concentrations, 30 min RT, vs control without ligand): promoted σ1R-BiP complexes |
| YGGFL [leu-enkephalin, leucine-enkephalin 1–5] |  | disrupted this association | dissociated σ1R-NR1 C1 complexes |  |
| β-End 1–16: nonphysiological fragment of β-End 1–31 (YGGFMTSEKSQTPLVT; Beta-endorphin; UniProt P01189 237-252, looked up, fragment) |  |  |  | effect on β-End 1–31 analgesia, nonphysiological fragments ([1]; 1 nmol icv 20 min before 0.5 nmol β-End 1–31 icv, 6 mice): practically did not alter β-End 1–31 analgesia |
| GGFL [leu-enkephalin 2–5 metabolite] |  | disrupted this association |  |  |
| ^αN-acetyl leu-enkephalin: chimeric ^αN-acetylated leu-enkephalin |  | protective |  |  |
| YGGFM [met-enkephalin, methionine-enkephalin, β-End N-terminal derivative 1–5] |  | promoted the sigma receptor heterodimer | enhancement |  |
| β-End 2–31: β-End 1–31 without Y1 (GGFMTSEKSQTPLVTLFKNAIIKNAYKKGE; Beta-endorphin; UniProt P01189 238-267, looked up, fragment) |  | diminished σ1R-σ2R associations | promoting the σ1R-NR1 C1 association |  |
| Cc1c(C(=O)c2cccc3ccccc23)c2cccc3c2n1[C@H](CN1CCOCC1)CO3 [WIN55,212–2] | did not significantly change |  |  |  |
